Data on four molecules can be found in publication PMC7344390, “Leptogorgins A–C, Humulane Sesquiterpenoids from the Vietnamese Gorgonian Leptogorgia sp” (Marine Drugs, 2020).

In experiment [1] the test system is PNT2 cells (human prostate non-cancer cells). The experiment is described as follows: In vitro MTT-based drug sensitivity assay, PNT2 cells. Conditions: 72 h treatment, read-out: IC50 (cell viability, MTT). Here is the method:
(§1) The human prostate cancer cells 22Rv1 and human prostate non-cancer cells PNT2 were purchased from ATCC. Cell lines were cultured according to the manufacturer’s instructions in 10% FBS/RPMI media (Invitrogen, Carlsbad, CA, USA) and handled as described in [29].
(§2) The in vitro cytotoxic activities of the isolated substances were evaluated by MTT assays. The assays were performed as described previously. In brief, cells were seeded in 96-well plates (6 × 10^3 cells/well), incubated overnight, and treated with the tested compounds for 72 h. Next, 10 μL/well of MTT reagent was added and the plates were incubated for 2 h. The media were aspirated and the plates were dried. The formed formazan crystals were dissolved in DMSO and the cell viability was measured using an Infinite F200PRO reader (TECAN, Männedorf, Switzerland). Results were calculated by the GraphPad Prism software v. 7.05 (GraphPad Prism software Inc., La Jolla, CA, USA) and are represented as the IC50 of the compounds against the control cells treated with the solvent alone.

The subject of experiment [2] is 22Rv1 cells (human drug-resistant prostate cancer cells). The experiment is described as follows: In vitro MTT-based drug sensitivity assay, 22Rv1 cells. The following applies: 72 h treatment, read-out: IC50 (cell viability, MTT). Here is the method: as §1, §2
Another experiment deals with HT-29. More on the design: method as in PMID 12881017. Conditions: human cancer HT-29 cell line; more active than curcumin; cited from earlier work.
Another experiment deals with NCF-7. More on the design: method as in PMID 12881017. Conditions: human cancer NCF-7 cell line; more active than curcumin; cited from earlier work.
A further experiment concerns CaCO-2. Also noted: method as in PMID 12881017. The following applies: human cancer CaCO-2 cell line; more active than curcumin; cited from earlier work.

On to `CC1=CCC(C)(C)C=CC(=O)C(CO)=CC(O)C1` (stereo not drawn) [Compound 1, 4-oxohumula-2E,5E,9E-trien-7S,12-diol], for which the IC50 was determined as 35.8 µM in experiment [1] and 31 µM in experiment [2].
With `CC(=O)OC1C=C(CO)C(=O)C=CC(C)(C)CC=C(C)C1` (stereo not drawn) [Compound 2, 4-oxohumula-2E,5E,9E-trien-7S-acetate,12-ol], the IC50 in experiment [1] and in experiment [2] was over 100 µM throughout.
As to `COc1cccc2c1C(=O)c1c(O)c3c(c(O)c1C2=O)C[C@@](O)(C(=O)CO)C[C@@H]3O[C@H]1C[C@H](N)[C@H](O)[C@H](C)O1` [Doxorubicine], the IC50 in experiment [1] was found to be 1.12 µM; in experiment [2], 0.084 µM.
Take `C/C1=C\CC(C)(C)/C=C/C(=O)/C(C)=C/CC1` [zurumbone, 2,6,9-humulatriene-8-one]: the antitumor activity result in the experiment on HT-29, in the experiment with NCF-7 and in the experiment on CaCO-2 was “active” each time.

In general, IC50 refers to the concentration at which inhibition is half-maximal.
